Experimental data from patent US6015829A, “1-phenylpyrazole compounds and medicinal application thereof” (Yoshitomi Pharmaceutical Industries, ltd., priority 1996, dated 2000).

System: uric acid value of mouse serum
Assay: Lowering of Uric Acid Value of Mouse Serum
Type: in vivo
Conditions: male ICR mice, 0.3 mg/kg into the stomach
Description: Lowering of Uric Acid Value of Mouse Serum
A sample suspended in 0.5% aqueous hydroxypropyl methyl cellulose (HPMC) solution was forcibly administered into the stomach of 4 to 6 week-old male ICR mice (4 per group) in a dose of 0.3 mg/kg using an oral sound probe. At 2 and 6 hours after the administration of the sample, mice were anesthetized with halothane. Blood samples were taken from both carotid arteries and the mice were exsanguinated. The blood was stood at room temperature for 20-30 minutes and centrifuged at 2000×g for 15 minutes to give serum. The uric acid value was measured using a uric acid measurement kit (manufactured by Wako Pure Chemicals Co.) by phosphotungstic acid method. The obtained values were applied to the following formula to give uric acid value decrease percentage at 2 and 6 hours after the administration of the sample.
Uric acid value decrease (%)=(1-average uric acid value of group administered with sample/average uric acid value of group administered with HPMC)×100

Oc1ncnc2[nH]ncc12 [allopurinol]
Uric acid value decrease (%) at 2 hours (2 hours after administration): 33%
Uric acid value decrease (%) at 6 hours (6 hours after administration): 14%
